System: 699152-130-R-J1-PDC complex spheroid viability
Assay: Anticancer human tumor 699152-130-R-J1-PDC patient-derived pancreatic carcinoma cell line growth inhibition [POLQ]
Conditions: for IC50: curve of first compound; for viability, T/C: stronger effect = lower value
Method in brief: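 Complex spheroid viability model combining PDC tumour cells with endothelial (HUVEC) and MSC stromal cells. Novobiocin, ART-558 or RP6685 were tested singly and in combination with standard and investigational anticancer drugs. Each was titrated in half-log steps from near clinical Cmax, or from 10 microM where Cmax was unknown.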

[1] = second compound 0.0316 µM, first compound 0.0316 µM
[2] = second compound 0.0316 µM, first compound 0.1 µM
[3] = second compound 0.0316 µM, first compound 0.316 µM
[4] = second compound 0.0316 µM, first compound 1 µM
[5] = second compound 0.0316 µM, first compound 3.16 µM
[6] = second compound 0.0316 µM, first compound 10 µM
[7] = second compound 0.1 µM, first compound 0.0316 µM
[8] = second compound 0.1 µM, first compound 0.1 µM
[9] = second compound 0.1 µM, first compound 0.316 µM
[10] = second compound 0.1 µM, first compound 1 µM
[11] = second compound 0.1 µM, first compound 3.16 µM
[12] = second compound 0.1 µM, first compound 10 µM
[13] = second compound 0.316 µM, first compound 0.0316 µM
[14] = second compound 0.316 µM, first compound 0.1 µM
[15] = second compound 0.316 µM, first compound 0.316 µM
[16] = second compound 0.316 µM, first compound 1 µM
[17] = second compound 0.316 µM, first compound 3.16 µM
[18] = second compound 0.316 µM, first compound 10 µM
[19] = second compound 1 µM, first compound 0.0316 µM
[20] = second compound 1 µM, first compound 0.1 µM
[21] = second compound 1 µM, first compound 0.316 µM
[22] = second compound 1 µM, first compound 1 µM
[23] = second compound 1 µM, first compound 3.16 µM
[24] = second compound 1 µM, first compound 10 µM
[25] = second compound 3.16 µM, first compound 0.0316 µM
[26] = second compound 3.16 µM, first compound 0.1 µM
[27] = second compound 3.16 µM, first compound 0.316 µM
[28] = second compound 3.16 µM, first compound 1 µM
[29] = second compound 3.16 µM, first compound 3.16 µM
[30] = second compound 3.16 µM, first compound 10 µM
[31] = second compound 10 µM, first compound 0.0316 µM
[32] = second compound 10 µM, first compound 0.1 µM
[33] = second compound 10 µM, first compound 0.316 µM
[34] = second compound 10 µM, first compound 1 µM
[35] = second compound 10 µM, first compound 3.16 µM
[36] = second compound 10 µM, first compound 10 µM
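Also: spheroids exposed to agents for 7 days before viability reading.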
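For viability, T/C in this document: percent of DMSO vehicle control viability so 100% = vehicle and 0% = no viable signal.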

**Q.** Which IC50 (second compound 0.0316 µM) does the source give for `Nc1ccn(C2OC(CO)C(O)C2(F)F)c(=O)n1` (stereo unspecified) + Nc1ccc(C#CCN(C(=O)Cc2ncc(C(F)(F)F)cc2C(F)(F)F)c2ccc(F)cc2)nn1 here?
**A.** 0.476 µM

**Q.** What about the IC50 (second compound 0.1 µM) of the same molecule?
**A.** 0.771 µM

**Q.** And the IC50 (second compound 0.316 µM)?
**A.** 1.77 µM

**Q.** And the IC50 (second compound 1 µM)?
**A.** 2.37 µM

**Q.** What about the IC50 (second compound 3.16 µM) of the same molecule?
**A.** 1.44 µM

**Q.** And the IC50 (second compound 10 µM)?
**A.** 2.16 µM

**Q.** And the viability, T/C [1]?
**A.** 71.5%

**Q.** What about the viability, T/C [2] of the same molecule?
**A.** 58.8%

**Q.** And the viability, T/C [3]?
**A.** 50.5%

**Q.** And the viability, T/C [4]?
**A.** 46.9%

**Q.** What about the viability, T/C [5] of the same molecule?
**A.** 50%

**Q.** What about the viability, T/C [6] of the same molecule?
**A.** 43%

**Q.** And the viability, T/C [7]?
**A.** 78.4%

**Q.** And the viability, T/C [8]?
**A.** 65.5%

**Q.** And the viability, T/C [9]?
**A.** 52%

**Q.** What about the viability, T/C [10] of the same molecule?
**A.** 46%

**Q.** What about the viability, T/C [11] of the same molecule?
**A.** 55.6%

**Q.** What about the viability, T/C [12] of the same molecule?
**A.** 37.5%

**Q.** And the viability, T/C [13]?
**A.** 81.3%

**Q.** What about the viability, T/C [14] of the same molecule?
**A.** 60.5%

**Q.** What about the viability, T/C [15] of the same molecule?
**A.** 55.9%

**Q.** And the viability, T/C [16]?
**A.** 55.4%

**Q.** What about the viability, T/C [17] of the same molecule?
**A.** 49.6%

**Q.** What about the viability, T/C [18] of the same molecule?
**A.** 44.6%

**Q.** What about the viability, T/C [19] of the same molecule?
**A.** 79.2%

**Q.** What about the viability, T/C [20] of the same molecule?
**A.** 63.9%

**Q.** And the viability, T/C [21]?
**A.** 57.4%

**Q.** What about the viability, T/C [22] of the same molecule?
**A.** 58.5%

**Q.** And the viability, T/C [23]?
**A.** 51.5%

**Q.** And the viability, T/C [24]?
**A.** 41%

**Q.** And the viability, T/C [25]?
**A.** 84.2%

**Q.** And the viability, T/C [26]?
**A.** 68.3%

**Q.** What about the viability, T/C [27] of the same molecule?
**A.** 55.2%

**Q.** And the viability, T/C [28]?
**A.** 55.3%

**Q.** And the viability, T/C [29]?
**A.** 49%

**Q.** What about the viability, T/C [30] of the same molecule?
**A.** 40%

**Q.** And the viability, T/C [31]?
**A.** 103%

**Q.** What about the viability, T/C [32] of the same molecule?
**A.** 82.8%

**Q.** What about the viability, T/C [33] of the same molecule?
**A.** 63.1%

**Q.** And the viability, T/C [34]?
**A.** 52.8%

**Q.** And the viability, T/C [35]?
**A.** 50.9%

**Q.** What about the viability, T/C [36] of the same molecule?
**A.** 44.9%

**Q.** With `CC1COCCN1c1cc(-c2ccnn2C)c2ccnc(-c3ccn[nH]3)c2n1` (stereo unspecified) + Nc1ccc(C#CCN(C(=O)Cc2ncc(C(F)(F)F)cc2C(F)(F)F)c2ccc(F)cc2)nn1 as the molecule, how does the IC50 (second compound 0.0316 µM) read?
**A.** > 10 µM

**Q.** And the IC50 (second compound 0.1 µM)?
**A.** > 10 µM

**Q.** And the IC50 (second compound 0.316 µM)?
**A.** > 10 µM

**Q.** What about the IC50 (second compound 1 µM) of the same molecule?
**A.** 6.83 µM

**Q.** And the IC50 (second compound 3.16 µM)?
**A.** > 10 µM

**Q.** And the IC50 (second compound 10 µM)?
**A.** > 10 µM

**Q.** And the viability, T/C [1]?
**A.** 88.4%

**Q.** And the viability, T/C [2]?
**A.** 91.3%

**Q.** What about the viability, T/C [3] of the same molecule?
**A.** 80.4%

**Q.** What about the viability, T/C [4] of the same molecule?
**A.** 63.5%

**Q.** What about the viability, T/C [5] of the same molecule?
**A.** 52.9%

**Q.** And the viability, T/C [6]?
**A.** 50%

**Q.** What about the viability, T/C [7] of the same molecule?
**A.** 90.9%

**Q.** And the viability, T/C [8]?
**A.** 89%

**Q.** And the viability, T/C [9]?
**A.** 75.4%

**Q.** And the viability, T/C [10]?
**A.** 66.6%

**Q.** And the viability, T/C [11]?
**A.** 52.8%

**Q.** What about the viability, T/C [12] of the same molecule?
**A.** 53.3%

**Q.** What about the viability, T/C [13] of the same molecule?
**A.** 102%

**Q.** And the viability, T/C [14]?
**A.** 90.6%

**Q.** What about the viability, T/C [15] of the same molecule?
**A.** 75.4%

**Q.** What about the viability, T/C [16] of the same molecule?
**A.** 58.9%

**Q.** And the viability, T/C [17]?
**A.** 48.5%

**Q.** And the viability, T/C [18]?
**A.** 53.9%

**Q.** And the viability, T/C [19]?
**A.** 101%

**Q.** What about the viability, T/C [20] of the same molecule?
**A.** 82.8%

**Q.** What about the viability, T/C [21] of the same molecule?
**A.** 71.4%

**Q.** What about the viability, T/C [22] of the same molecule?
**A.** 58%

**Q.** And the viability, T/C [23]?
**A.** 52.2%

**Q.** What about the viability, T/C [24] of the same molecule?
**A.** 49.2%

**Q.** And the viability, T/C [25]?
**A.** 107%

**Q.** What about the viability, T/C [26] of the same molecule?
**A.** 92.7%

**Q.** And the viability, T/C [27]?
**A.** 75.6%

**Q.** What about the viability, T/C [28] of the same molecule?
**A.** 55.3%

**Q.** What about the viability, T/C [29] of the same molecule?
**A.** 47.2%

**Q.** And the viability, T/C [30]?
**A.** 57%

**Q.** And the viability, T/C [31]?
**A.** 114%

**Q.** And the viability, T/C [32]?
**A.** 94.3%

**Q.** What about the viability, T/C [33] of the same molecule?
**A.** 80.9%

**Q.** What about the viability, T/C [34] of the same molecule?
**A.** 58%

**Q.** What about the viability, T/C [35] of the same molecule?
**A.** 64.5%

**Q.** And the viability, T/C [36]?
**A.** 49.9%

**Q.** Which results are given for `COc1cc(C2c3cc4c(cc3C(OC3OC5COC(C)OC5C(O)C3O)C3COC(=O)C23)OCO4)cc(OC)c1O` (stereo unspecified) + COC1C(OC(N)=O)C(O)C(Oc2ccc3c(O)c(NC(=O)c4ccc(O)c(CC=C(C)C)c4)c(=O)oc3c2C)OC1(C)C?
**A.** IC50 (second compound 0.0316 µM): 4.01 µM; IC50 (second compound 0.1 µM): 3.17 µM; IC50 (second compound 0.316 µM): 4.05 µM; IC50 (second compound 1 µM): 2.51 µM; IC50 (second compound 3.16 µM): 4.61 µM; IC50 (second compound 10 µM): 3.04 µM; viability, T/C [1]: 92.1%; viability, T/C [2]: 99.5%; viability, T/C [3]: 66.4%; viability, T/C [4]: 72.5%; viability, T/C [5]: 51.3%; viability, T/C [6]: 40.2%; viability, T/C [7]: 83.9%; viability, T/C [8]: 94%; viability, T/C [9]: 71.1%; viability, T/C [10]: 61.1%; viability, T/C [11]: 54.3%; viability, T/C [12]: 38.2%; viability, T/C [13]: 99.5%; viability, T/C [14]: 80.4%; viability, T/C [15]: 74.4%; viability, T/C [16]: 70.8%; viability, T/C [17]: 46.8%; viability, T/C [18]: 42.7%; viability, T/C [19]: 94.5%; viability, T/C [20]: 87.8%; viability, T/C [21]: 75%; viability, T/C [22]: 60.4%; viability, T/C [23]: 47.7%; viability, T/C [24]: 38.4%; viability, T/C [25]: 93%; viability, T/C [26]: 86.2%; viability, T/C [27]: 75.3%; viability, T/C [28]: 66.7%; viability, T/C [29]: 49.7%; viability, T/C [30]: 46%; viability, T/C [31]: 87.3%; viability, T/C [32]: 85.6%; viability, T/C [33]: 78.5%; viability, T/C [34]: 62.6%; viability, T/C [35]: 50.8%; viability, T/C [36]: 40.6%

From PubChem BioAssay AID1963835 (Molecular Pharmacology Branch, DTP, NCI, 2024)
